Measurements from patent US5550121A, “Aminoalkylpyrrolidinylthiocarbapenem derivatives” (priority 1991, dated 1996).
In brackets after ≈: the same amount, converted by molar mass. Where two headings read alike, the source gives them in different places.

What was measured:
P. aeruginosa MB5002 = test: in vitro antibacterial activity by agar plate dilution method (MIC); assay type: cell-based; settings: Pseudomonas aeruginosa, read-out: Minimum Inhibitory Concentration (MIC)
Procedure: (§1) One platinum loopful of each test microorganism incubated overnight in Mueller Hinton broth, was inoculated to Mueller Hinton agar (inoculum size: 10^6 CFU/ml). Such culture media contained antibacterial agents in various concentrations. After incubation at 37° C. for 16 hours, the minimum inhibitory concentrations (MIC: μg/ml) were measured.
(§2) The minimum inhibitory concentrations and the DHP-I susceptibility of the compounds of the present invention were compared with imipenem and the compound of REFERENCE EXAMPLE 13.

P. aeruginosa MB5178 = test: as above; assay type: cell-based; settings: Pseudomonas aeruginosa, MB5178, 16 h, read-out: Minimum Inhibitory Concentration (MIC)
Procedure: as §1, §2

[1] = in vivo; cited from earlier work
[2] = tested on: various gram positive bacteria and gram negative bacteria; settings: cited from earlier work
[3] = tested on: renal dehydropeptidase I (DHP-I); settings: cited from earlier work
Pseudomonas aeruginosa = settings: superior to thienamycin; cited from earlier work
[4] = imipenem compared with thienamycin; cited from earlier work
[5] = due to the decomposition products; cited from earlier work
[6] = tested on: renal dehydropeptidase I (DHP-I); test: DHP-I susceptibility (method by Kropp et al.), ratio to imipenem; assay type: in vitro ADME; settings: ratio to imipenem (=1.0); the smaller the value, the higher the stability
Description: Further, the DHP-I susceptibility was quantitatively analyzed by the method by Kropp et al., Antimicrob. Agents Chemother., vol. 22, p. 62-70 (1982), whereby the smaller the numerical value representing the ratio to imipenem (=1.0), the higher the stability.
as §2

[7] = Pharmacokinetics in mice after s.c. dosing, bioassay of plasma and urine; settings: mouse, sc, 20 mg/kg; for AUC / Cmax / Tmax / half-life: plasma; for dose excreted at 6 h: urine
Procedure: Pharmacokinetics in mice: Groups of three 20 g ddY male mice were given a single dose of 20 mg/kg of the compound of EXAMPLE 19 and imipenem by sc route. One group of three mice was placed in a metabolism cage designed to collect the urine free from fecal contamination. At a specified time after dosing, blood and urine samples were collected from a group for bioassay. The plasma was collected from the pooled blood after centrifugation. Microbiological assays: Bioactivity in the specimens was measured was by the standard disk diffusion procedure using Bacillus subtilis ATCC12432 as a test organism.

[8] = tested on: highly methicillin resistant Staphylococcus aureus which is resistant to imipenem and imipenem resistant Pseudomonas aeruginosa; settings: clinical field; cited from earlier work
[9] = P. aeruginosa MB5002, Mueller Hinton agar, inoculum 10^6 CFU/ml, 37° C., 16 hours
[10] = P. aeruginosa MB5178, Mueller Hinton agar, inoculum 10^6 CFU/ml, 37° C., 16 hours

SMILES: CC(CN)C[C@@H]1C[C@H](SC2=C(C(=O)O)N3C(=O)[C@H]([C@@H](C)O)[C@H]3[C@H]2C)CN1 (single isomer, unassigned) [Example 7]
- MIC (P. aeruginosa MB5002; [9]): 0.78 µg/mL (≈ 2.03 µM)

SMILES: C[C@@H](O)[C@H]1C(=O)N2C(C(=O)O)=C(S[C@@H]3CN[C@H](C(O)CN)C3)[C@H](C)[C@H]12 (single isomer, unassigned) [Example 13]
- MIC (P. aeruginosa MB5178; [10]): 3.13 µg/mL (≈ 8.43 µM)
- MIC (P. aeruginosa MB5002; [9]): 1.56 µg/mL (≈ 4.2 µM)

SMILES: C[C@@H](O)[C@H]1C(=O)N2C(C(=O)O)=C(SCCN)C[C@H]12 [thienamycin]
- recovery rate in the urine [1]: low
- antibacterial activities ([2]; statement in words, prior art): strong antibacterial activities over a wide range against gram positive bacteria and gram negative bacteria
- decomposition by DHP-I [3]: likely to be decomposed

SMILES: C[C@@H](O)[C@H]1C(=O)N2C(C(=O)O)=C(SCCN=CN)C[C@H]12 [Imipenem, (5R,6S,8R)-3-[[2-(formimidoylamino)ethyl]thio]-6-(1-hydroxyethyl)-7-oxo-1-azabicyclo[3.2.0]hept-2-en-2-carboxylic acid monohydrate]
- antibacterial activities compared with thienamycin (Pseudomonas aeruginosa): 2 to 4 times
- antibacterial activities compared with thienamycin ([2]; various types of bacteria): equal or higher level than thienamycin
- stability in the solid form or in an aqueous solution [4]: remarkably improved over thienamycin
- MIC (P. aeruginosa MB5178): 25 µg/mL
- MIC (P. aeruginosa MB5002; MB5002, 16 h): 1.56 µg/mL
- decomposition by DHP-I [3]: likely to be decomposed by DHP-I in the human kidney
- toxicity against the kidney [5]: presents toxicity against the kidney due to the decomposition products
- DHP-I susceptibility [6]: 1.0
- AUC [7]: 9500 ng·h/mL
- Cmax [7]: 21500 ng/mL
- Tmax [7]: 10.8 min
- half-life [7]: 7.2 min
- dose excreted at 6 h [7]: 21.5%
- treating effects against resistant bacteria [8]: does not show adequate treating effects

SMILES: CC(=O)NC[C@@H]1C[C@H](SC2=C(C(=O)O)N3C(=O)[C@H]([C@@H](C)O)[C@H]3[C@H]2C)CN1 [compound 13, (1R,5S,6S)-2-[(2S,4S)-2-(Acetylaminomethyl)pyrrolidin-4-ylthio]-6-[(1R)-1-hydroxyethyl]-1-methyl-1-carbapen-2-em-3-carboxylic Acid]
- MIC (P. aeruginosa MB5178; [10]): 12.5 µg/mL (≈ 32.6 µM)
- MIC (P. aeruginosa MB5002; [9]): 6.25 µg/mL (≈ 16.3 µM)
- DHP-I susceptibility [6]: 0.7

SMILES: CNCC[C@@H](O)[C@@H]1C[C@H](SC2=C(C(=O)O)N3C(=O)[C@H]([C@@H](C)O)[C@H]3[C@H]2C)CN1 [Example 19]
- AUC [7]: 13800 ng·h/mL
- Cmax [7]: 29000 ng/mL
- Tmax [7]: 10.8 min
- half-life [7]: 7.8 min
- dose excreted at 6 h [7]: 62.5%

SMILES: C[C@@H](O)[C@H]1C(=O)N2C(C(=O)O)=C(S[C@@H]3CN[C@H](C(O)CCN)C3)[C@H](C)[C@H]12 (single isomer, unassigned) [Example 9]
- MIC (P. aeruginosa MB5178; [10]): 1.56 µg/mL (≈ 4.05 µM)
- MIC (P. aeruginosa MB5002; [9]): 0.78 µg/mL (≈ 2.02 µM)
